The text below walks through data of US11701409B2, “Dosing and use of long-acting CLR/ramp agonists” (Adepthera LLC, priority 2016, dated 2023).

Like-named read-outs stand apart in the source and are kept apart here. No end group written: not given here.

Data set [1] deals with C57/B6 mice. The experiment in a line: Doxorubicin-induced cardiomyopathy in adult mice, heart weight. In kind it is in vivo. To be noted: for average heart weight: sixth day. The method, then: (§1) To evaluate the effects of the long-acting stable analog on heart failure, we treated 8-week-old C57/B6 mice with doxorubicin (10 mg/kg body weight) to induce cardiomyopathy. After the injection of doxorubicin, the animals were injected with wild-type ADM or the long-acting stable analog twice daily. After five days of treatment, the animals were sacrificed, and hearts were collected for weight determination individually. In addition, we collected blood samples for the determination of aspartate aminotransferase activity. Sham adult mice at the same ages were used as normal controls.

For data set [2], the system named is C57/B6 mice. Format: in vivo. On the procedure: as §1
In a separate series of study, we evaluated the effects of stable analog on blood aspartate aminotransferase levels (FIG. 4b).

In data set [3] the test system is normal pregnant Sprague Dawley rats. The experiment in a line: Blood pressure after bolus IP injection in instrumented normal pregnant Sprague Dawley rats. In kind it is in vivo, rat. The note with it: for duration of sustained reduction of blood pressure (hypotensive effect): bolus IP injection, 100 nmoles/kg, normal pregnant Sprague Dawley rats. From the text: (§2) Bolus IP injection of the long-acting stable analog (100 nmoles/kg) led to a sustained reduction of blood pressure for 4 hr in normal pregnant Sprague Dawley rats, whereas the hypotensive effects of wild-type ADM disappeared within 2 hr (FIG. 1a). In addition, we compared the blood pressure-lowering effect of the long-acting stable analog in pregnant Sprague Dawley rats and pregnant spontaneous hypertensive rats (SHR). […] This characteristic not only allows less frequent dosing in clinical condition but also increases the therapeutic index of long-acting CLR/RAMP receptor agonists.

In data set [4] the test system is pregnant SHR rats. The data set can be described thus: Blood pressure after injection in pregnant spontaneous hypertensive rats (SHR). In kind it is in vivo, rat. The note with it: low dose 30 nmoles/kg.
Description: as §2

The test system of data set [5] is RUPP pregnant rats. The data set can be described thus: Reduced uterine perfusion pressure (RUPP) preeclampsia rat model, osmotic mini-pump infusion for 4 days. Format: in vivo. On the procedure: To evaluate the effects of the long-acting stable analog for the treatment of preeclampsia, resistant hypertension, hypertensive crisis, vascular ischemic injury, and pregnancy hypertension, we tested the analog in a reduced uterine perfusion pressure (RUPP) preeclampsia rat model. The model was first described by Dr. Joey P. Granger et al. (2000, Hypertension 37:1191-1195). Briefly, pregnant rats weighing 200-250 g at 14 days of gestation were anesthetized with pentobarbital (40 mg/kg, i.p.). The lower abdomen area was shaved and the skin was swabbed with surgical scrub (iodine and alcohol). A 3-cm skin incision was made at the midline. After a midline incision, the lower abdominal aorta was isolated and a silver clip (0.203 mm) was placed around the aorta above the iliac bifurcation. Because compensatory blood flow to the placenta occurs via an adaptive increase in […] blood flow during pregnancy, both right and left […] arcades were clipped (silver clip, 0.100 mm). RUPP rats were divided into two groups, and an osmotic mini-pump (ALZET) loaded with saline or the long-acting analog was implanted in the upper abdomen. The mini-pumps delivered the solution at a rate of 1 ul/hr. Sham pregnant rats were used as normal controls.
The incision was closed with absorbable braided surgical suture. After awake, animals were given buprenorphine 0.1 mg/kg s.c. once a day for three days. These procedures reduced uterine blood flow in the gravid rat by >40%, and cause hypertension and intrauterine growth restriction in the fetus.
After 4 days of the treatments, all rats were anesthetized and catheterized for measurement of blood pressure and heart rate. Animals were anesthetized with pentobarbital, and a Mikro-tip catheter (1.0 F pressure catheter, Miller, Tex.) was placed into the right carotid artery. After insertion, the catheter was advanced into the aorta, and stopped at the appearance of arterial pressure curve. The Mikro-tip catheter was connected to a Powerlab system, and blood pressure and heart rate was recorded and saved in a computer. In addition, the blood flow velocity above and below the artery constriction site was determined by a Doppler method.
After the hemodynamic measurement was completed (taking about 0.5-1 hr), rats were euthanized. The fetuses, placenta tissues, and hearts were harvested and weighed individually.

[6] abbreviates: high dosage 10 μg/kg/hr for four days.
Where [7] appears, read: low dose 3.3 μg/kg/hr for four days.

In turn, `COc1cccc2c1C(=O)c1c(O)c3c(c(O)c1C2=O)C[C@@](O)(C(=O)CO)C[C@@H]3O[C@H]1C[C@H](N)[C@H](O)[C@H](C)O1` [doxorubicin, reference compound] yielded an average heart weight in data set [1] (doxorubicin 10 mg/kg body weight alone (Dox group)) of 9.3 ± 0.4 mg. In addition, the “blood aspartate aminotransferase level” value in data set [2] (mouse, in vivo) is 300.7±33.6 U/liter.

Take “Ace-K(Pal)GCRFGTCTVQKLAHQIYQFTDKDKDNVAPRSKISPQGY-NH2 (KGCRFGTCTVQKLAHQIYQFTDKDKDNVAPRSKISPQGY; N-acetyl, palmitoyl-Lys, C-terminal amide; MOD_RES (1)..(1) …ON; LIPID (1)..(1) …; MOD_RES (39)..(39) AMIDATION) [long-acting stable analog]”: in data set [3], the “duration of sustained reduction of blood pressure (hypotensive effect)” value was 4 h. Besides, the “duration of blood pressure reduction” value in data set [3] (low dose 30 nmoles/kg, pregnant Sprague Dawley rats) came out at 2 h. Besides, the “duration of hypotensive effects” value in data set [4] is on record as “over 8 hr”. Further, in data set [5] (setting [6]), the average fetus weight is 483 ± 92 mg, the average heart weight came out at 3.16±0.06 mg per gram body weight, the average placenta weight was 253 ± 36 mg and the “body weight lost during the four-day experimental period” value is on record as 3±3 grams. In data set [5] (setting [6]), this molecule had a heart rate of 379±8 beats/min and a mean arterial pressure of 93±5 mmHg. Moreover, in data set [5] (setting [7]), the average fetus weight stood at 577 ± 166 mg, the average placenta weight turned out to be 301 ± 46 mg and the mean arterial pressure is recorded as 107±4 mmHg. Further, in data set [1] (co-treatment with doxorubicin 10 mg/kg, peptide injected twice daily, five days), the average heart weight stood at 11.0 ± 0.6 mg. The “blood aspartate aminotransferase level” value in data set [2] (Dox + stable analog, high dose 50 nM/Kg body weight) is 200.1±10.0 U/liter. For the same molecule, the “effect on doxorubicin-elevated aspartate aminotransferase level” value in data set [2] (Dox + stable analog, low dose 25 nM/Kg BW) was “no statistically significant effect”.

For “adrenomedullin (YRQSMNNFQGLRSFGCRFGTCTVQKLAHQIYQFTDKDKDNVAPRSKISPQGY; ends and bridges not checked; cysteine pairing not given here; UniProt P35318 95-146, looked up) [wild-type ADM, wild-type adrenomedullin, 52 amino acids, 1 intramolecular disulfide bond, ligand of CLR/RAMP receptors, reference compound]”, in data set [3], the “duration of sustained reduction of blood pressure (hypotensive effect)” value is not above 2 h. The “reduction of doxorubicin-induced loss of heart weight” value in data set [1] (co-treatment with doxorubicin 10 mg/kg, peptide injected twice daily, five days, Dox group vs. Dox+ADM group) is on record as “not statistically significant”.
